In EP0320984A2, “1,4-Dihydropyridine derivatives” (FUJIREBIO INC., priority 1987, dated 1989):

System: Rabbit platelet rich plasma (PRP)
Assay: Inhibitory activity on platelet aggregation in rabbit platelet rich plasma (light transmission)
Format: cell-based
Settings: added to PRP 30 minutes before agent; for Inhibitory activity on platelet aggregation, PAF: compound 3x10^-6 (unit not given), Platelet activating factor (PAF) 10 mg/ml; for Inhibitory activity on platelet aggregation, ADP / Inhibitory activity on platelet aggregation, AA / Inhibitory activity on platelet aggregation, Collagen: compound 10^-4 (unit not given); for Inhibitory activity on platelet aggregation, ADP: Adenosine diphosphate (ADP) 5 mM; for Inhibitory activity on platelet aggregation, AA: Arachidonic acid (AA) 1 mM; for Inhibitory activity on platelet aggregation, Collagen: aggregating agent collagen
Method: 3. Experiment for inhibitory activity on platelet aggregation in rabbit:
Rabbit platelet rich plasma (PRP) was prepared by centrifugation of the citrated blood at 380 g for 10 minutes at 20°C. Test solution (10 µl) was added to PRP (200 µl) 30 minutes before treatment of aggregation agents (10 µl). The extent of aggregation was expressed with the maximum change in light transmission for PRP and platelet poor plasma was taken as a value of 100%

`COC(=O)C1=C(C)NC(C)=C(C(=O)OC/C=C/c2ccc(Cn3cnnn3)cc2)C1c1cccc([N+](=O)[O-])c1` (stereo not drawn) [Example 11, Methyl (E)-3-{4-(1,2,3,4-tetrazol-1-ylmethyl)phenyl}-2-propen-1-yl 1,4-dihydro-2,6-dimethyl-4-(3-nitrophenyl)pyridine-3,5-dicarboxylate] was tested, and the “Inhibitory activity on platelet aggregation, PAF” value (from here on “Inhibitory activity … PAF”) was 31.1%, the “Inhibitory activity on platelet aggregation, ADP” value (“Inhibitory activity … ADP” below) was 1.3% and the “Inhibitory activity on platelet aggregation, AA” value (shortened to “Inhibitory activity … AA”) was 2.9%. The “Inhibitory activity on platelet aggregation, Collagen” value (“Inhibitory activity … Collagen” below) was 7.1%.

For `COC(=O)C1=C(C)NC(C)=C(C(=O)OC/C=C/c2ccc(Cn3cnnc3)cc2)C1c1cccc([N+](=O)[O-])c1` (stereo not drawn) [Example 9], the “Inhibitory activity … PAF” value was 78.8%, the “Inhibitory activity … ADP” value was 6.5% and the “Inhibitory activity … AA” value was 5.9%. The “Inhibitory activity … Collagen” value was 11.1%.

In the case of `COC(=O)C1=C(C)NC(C)=C(C(=O)OC/C=C/c2ccccc2Cn2ccnc2)C1c1cccc([N+](=O)[O-])c1` (stereo not drawn) [Example 20, (E)-3-{2-(1-imidazolylmethyl)phenyl}-2-propen-1-yl methyl 1,4-dihydro-2,6-dimethyl-4-(3-nitrophenyl)pyridine-3,5-dicarboxylate], the “Inhibitory activity … PAF” value is reported as 0%, the “Inhibitory activity … ADP” value is reported as 9.5% and the “Inhibitory activity … AA” value is reported as 30.4%. For the same compound, the “Inhibitory activity … Collagen” value was 32.3%.

`COC(=O)C1=C(C)NC(C)=C(C(=O)OC/C=C/c2ccc(Cc3cccnc3)cc2)C1c1cccc([N+](=O)[O-])c1` (stereo not drawn) [Example 2, Methyl (E)-3-{4-(3-pyridylmethyl)phenyl}-2-propen-1-yl 1,4-dihydro-2,6-dimethyl-4-(3-nitrophenyl)pyridine-3,5-dicarboxylate] was tested, and the “Inhibitory activity … PAF” value was 0%, the “Inhibitory activity … ADP” value was 5.5% and the “Inhibitory activity … AA” value was 12.6%. For the same compound, the “Inhibitory activity … Collagen” value was 23.5%.

`CCOC(=O)C1=C(C)NC(C)=C(C(=O)OC/C=C/c2ccc(Cn3ccnc3)cc2)C1c1cccc([N+](=O)[O-])c1` (stereo not drawn) [Example 7, Ethyl (E)-3-{4-(1-imidazolylmethyl)phenyl}-2-propen-1-yl 1,4-dihydro-2,6-dimethyl-4-(3-nitrophenyl)pyridine-3,5-dicarboxylate] was tested, and the “Inhibitory activity … PAF” value was 0%, the “Inhibitory activity … ADP” value was 4.3% and the “Inhibitory activity … AA” value was 17.8%. For the same compound, the “Inhibitory activity … Collagen” value was 30.9%.

`COC(=O)C1=C(C)NC(C)=C(C(=O)OCCON=Cc2ccc(Cn3ccnc3)cc2)C1c1cccc([N+](=O)[O-])c1` (stereo not drawn) [Example 26, 2-[{4-(1-imidazolylmethyl)benzylideneamino}oxy]ethyl methyl 1,4-dihydro-2,6-dimethyl-4-(3-nitrophenyl)pyridine3,5-dicarboxylate] was tested, and the “Inhibitory activity … PAF” value was 30.0%, the “Inhibitory activity … ADP” value was 6.0% and the “Inhibitory activity … AA” value was 27.6%. For the same compound, the “Inhibitory activity … Collagen” value was 13.5%.

For `COC(=O)C1=C(C)NC(C)=C(C(=O)OC/C=C(\C)c2ccc(Cn3ccnc3)cc2)C1c1cccc([N+](=O)[O-])c1` (stereo not drawn) [Example 6], the “Inhibitory activity … PAF” value was 0%, the “Inhibitory activity … ADP” value was 6.5% and the “Inhibitory activity … AA” value was 15.6%. For the same compound, the “Inhibitory activity … Collagen” value was 27.2%.

`COC(=O)C1=C(C)NC(C)=C(C(=O)OC/C=C/c2ccc(Cn3ccnc3)cc2)C1c1ccnc2ccccc12` (stereo not drawn) [Example 23, (E)-3-{4-(1-imidazolylmethyl)phenyl}-2-propen-1-yl methyl 1,4-dihydro-2,6-dimethyl-4-(4-quinolyl)pyridine-3,5-dicarboxylate] was tested, and the “Inhibitory activity … PAF” value was 0%, the “Inhibitory activity … ADP” value was 2.6% and the “Inhibitory activity … AA” value was 25.7%. The “Inhibitory activity … Collagen” value was 29.5%.

With `COC(=O)C1=C(C)NC(C)=C(C(=O)OC/C=C/c2ccc(Cn3ccnc3)cc2)C1c1cccc(C(F)(F)F)c1` (stereo not drawn) [Example 17, (E)-3-{4-(1-imidazolylmethyl)phenyl}-2-propen-1-yl methyl 1,4-dihydro-2,6-dimethyl-4-(3-trifluoromethylphenyl)pyridine-3,5-dicarboxylate] the “Inhibitory activity … PAF” value was 39.7%, the “Inhibitory activity … ADP” value was 10.5% and the “Inhibitory activity … AA” value was 37.8%. The “Inhibitory activity … Collagen” value was 55.0%.

In the case of `COC(=O)C1=C(C)NC(C)=C(C(=O)OC/C=C/c2cccc(Cn3ccnc3)n2)C1c1cccc([N+](=O)[O-])c1` (stereo not drawn) [Example 25, (E)-3-{6-(1-imidazolylmethyl)pyridine-2-yl}-2-propen-1-yl methyl 1,4-dihydro-2,6-dimethyl-4-(3-nitrophenyl)pyridine-3,5-dicarboxylate], the “Inhibitory activity … PAF” value is reported as 28.5%, the “Inhibitory activity … ADP” value is reported as 0% and the “Inhibitory activity … AA” value is reported as 27.8%. The “Inhibitory activity … Collagen” value was 22.5%.

`CC1=C(C(=O)OC/C=C/c2ccccc2)C(c2cccc([N+](=O)[O-])c2)C(C(=O)OC/C=C/c2ccc(Cn3ccnc3)cc2)=C(C)N1` (stereo not drawn) [Example 14, (E)-cinnamyl (E)-3-{4-(1-imidazolylmethyl)phenyl}-2-propen-1-yl 1,4-dihydro-2,6-dimethyl-4-(3-nitrophenyl)pyridine-3,5-dicarboxylate] was tested, and the “Inhibitory activity … PAF” value was 44.7%, the “Inhibitory activity … ADP” value was 4.3% and the “Inhibitory activity … AA” value was 42.0%. For the same compound, the “Inhibitory activity … Collagen” value was 69.6%.

`COC(=O)C1=C(C)NC(C)=C(C(=O)OC/C=C/c2ccc(Cn3cncn3)cc2)C1c1cccc([N+](=O)[O-])c1` (stereo not drawn) [Example 10, Methyl (E)-3-{4-(1,2,4-triazol-1-ylmethyl)phenyl}-2propen-1-yl 1,4-dihydro-2,6-dimethyl-4-(3-nitrophenyl)pyridine-3,5-dicarboxylate] was tested, and the “Inhibitory activity … PAF” value was 24.4%, the “Inhibitory activity … ADP” value was 2.1% and the “Inhibitory activity … AA” value was 5.0%. The “Inhibitory activity … Collagen” value was 5.5%.

With `COC(=O)C1=C(C)NC(C)=C(C(=O)OC/C=C/c2ccc(Cn3ccnc3)s2)C1c1cccc([N+](=O)[O-])c1` (stereo not drawn) [Example 5, (E)-3-{5-(1-imidazolylmethyl)-2-thiophene}-2-propen-1-yl methyl 1,4-dihydro-2,6-dimethyl-4-(3-nitrophenyl) pyridine-3,5-dicarboxylate] the “Inhibitory activity … PAF” value was 100%, the “Inhibitory activity … ADP” value was 12.0% and the “Inhibitory activity … AA” value was 33.4%. For the same compound, the “Inhibitory activity … Collagen” value was 32.3%.

In the case of `COC(=O)C1=C(C)NC(C)=C(C(=O)OC/C=C/c2ccc(Cn3ccnc3)cc2)C1c1cccnc1` (stereo not drawn) [Example 22, (E)-3-{4-(1-imidazolylmethyl)phenyl}-2-propen-1-yl methyl 1,4-dihydro-2,6-dimethyl-4-(3-pyridyl)pyridine-3,5-dicarboxylate], the “Inhibitory activity … PAF” value is reported as 0%, the “Inhibitory activity … ADP” value is reported as 14.7% and the “Inhibitory activity … AA” value is reported as 23.2%. For the same compound, the “Inhibitory activity … Collagen” value was 24.7%.

With `COC(=O)C1=C(C)NC(C)=C(C(=O)OC/C=C/c2ccc(Cn3ccnc3)cc2)C1c1cccc([N+](=O)[O-])c1` (stereo not drawn) [Example 1, (E)-3-{4-(1-imidazolylmethyl)phenyl}-2-propen-1-yl methyl 1,4-dihydro-2,6-dimethyl-4-(3-nitrophenyl)pyridine-3,5-dicarboxylate] the “Inhibitory activity … PAF” value was 35.4%, the “Inhibitory activity … ADP” value was 7.3% and the “Inhibitory activity … AA” value was 26.2%. For the same compound, the “Inhibitory activity … Collagen” value was 19.5%.
